Assay results: patent US12370235B2, “Synthetic, non-natural antimicrobial peptides inspired by Staphylococcus auricularis delta toxin” (University of Saskatchewan, priority 2021, dated 2025)
Read-outs that look alike come from different tables or passages of the source. Ends that are not written are not given here.

Columns and labels:
[1] = system: S. aureus / MRSA (ATCC MP-2 panel); assay type: cell-based, Staphylococcus aureus
In short: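 MIC by broth microdilution in cation-adjusted Mueller Hinton broth: cultures diluted to OD 6×10^−4 and exposed to 2-fold peptide dilution series, standing overnight at 37° C. MIC = lowest peptide concentration with no visible growth. Panel: one methicillin-sensitive S. aureus plus 7 MRSA strains of distinct SCCmec genotypes.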

[2] = system: Mannheimia haemolytica ATCC 33393; experiment: MIC, broth dilution; assay type: cell-based; details: Table 11; highest concentration 25 μg/mL
In short: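 Read-out is the lowest peptide concentration showing no growth after an overnight standing culture at 37 °C. Two-fold serial dilutions of 95%-pure peptide were tested against M. haemolytica ATCC 33393 at OD 6×10^−4 in cation-adjusted MH broth.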

C. albicans MYA-2876 = experiment: MIC, YPD broth; assay type: cell-based, Candida albicans; details: Table 8
In short: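 Yeast cells were diluted in YPD broth, and 180 μl aliquots were mixed with 20 μl of peptide from 2-fold serial dilutions in flat-bottom 96-well microtitre plates. Wells receiving 20 μl sterile water served as controls. After standing incubation overnight at 37° C, the MIC was taken as the lowest peptide concentration with no visible microbial growth.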

C. albicans Y537 = experiment: MIC, YPD broth; assay type: cell-based, Candida albicans; details: Table 8
MRSA ATCC 33592 [3] = experiment: SYTOX Green membrane integrity assay; assay type: cell-based, Staphylococcus aureus; details: one fourth to four-fold the MIC
Description: Membrane disruption and depolarization are commonly reported mechanisms of AMP action. Two indirect assays that rely on fluorescent dyes were employed to assess the interaction of STIP3-29 and D-STIP3-29 with bacterial membranes. First, changes to SYTOX fluorescence was measured when MRSA ATCC 33592 was treated with increasing peptide concentrations ranging from one fourth to four-fold the MIC. […] Next, DiSC3(5), a cationic dye that binds to polarized membranes was used to report on possible depolarization related to AMP treatment. […] Thus, without wishing to be bound by theory, a more conservative explanation of the results is that the cationic peptides increase membrane permeability to SYTOX and that the like-charge of the AMPs to the reporter of polarization may confound the interpretation of the indirect assay. For example, the AMPs may simply displace the self-quenching DiSC3(5) molecules from the membrane surface without causing depolarization.

Klebsiella pneumoniae = experiment: SYTOX Green membrane integrity assay; assay type: cell-based; details: 25 μg/mL; resistant strain
MRSA ATCC 33592 [4] = experiment: Three-dimensional NHEK skin model of MRSA infection and treatment; assay type: cell-based, Staphylococcus aureus
Description: To begin to assess the potential utility of STIP3-29 as a topical antimicrobial agent, the ability of the peptide to control MRSA infections of three-dimensional epidermal skin model prepared from normal, human-derived epidermal keratinocytes (NHEK) in vitro was evaluated. The multilayered and highly differentiated tissue was colonized with MRSA 33952 through a 4 h exposure to 5×10^5 CFU before removing non-adherent cells. It was observed that ˜7×10^3 CFU (−1%) of the MRSA cells colonized the tissues, and that the population expanded by 4-log units in a 16 h period (FIG. 6A). […] Amidation of the C-terminus is correlated with an increase in red blood cell lysis, observed by comparing of STIP3-1 to STIP3-28 and STIP3-3 to STIP3-29 whereas the inclusion of D-amino acids reduced the hemolytic activity.
Three-dimensional tissue infection and treatment. 3D EpiDerm skin tissues (MatTek EPI-200-AFAB; antifungal & antibiotic-free; 9 mm) contained within a plastic insert lined with a permeable 0.4 μm membrane were transferred to a 12 well plate containing dye- and antibiotic assay medium (600 μl per well). […] The number of colonies on each plated were counted and an average CFU/mL was determined for treated and untreated samples. […]

TVGGLVKWILKTVKKFA-NH2 [STIP3-29, TVGGLVKWILKTVKKFA-NH2]
MIC, MRSA [1]: 6.25 µg/mL
MIC, MRSA ([1]; molar): 3.3 µM
fold improvement of activity (MIC) ([1]; relative to STIP3-1, S. aureus / MRSA): 16 fold
MIC (μg/mL) M. haemolytica [2]: 25 µg/mL
MIC C. albicans MYA-2876 (C. albicans MYA-2876): 12.5 µg/mL
MIC C. albicans Y537 (C. albicans Y537): 25 µg/mL
SYTOX fluorescence change (MRSA ATCC 33592 [3]): rapid and concentration dependent increase in SYTOX fluorescence
SYTOX entry (Klebsiella pneumoniae): SYTOX was slow to enter
control of MRSA population on 3D epidermal tissue (MRSA ATCC 33592 [4]; 25 μg/ml after colonization, 16 h): prevented the expansion of the MRSA population
average bacterial density (MRSA ATCC 33592 [4]; tissues treated with 25 μg/mL (n=6), infected at 7×10^3 CFU/mL, untreated 9×10^7 CFU/mL): 6×10^3 CFU/mL
